# Test results from US20050222126A1, “Antiangiogenic compounds and an assay for inhibitors of cell invasion” (priority 2001, published 2005).
# “Also recorded” adds a separate entry of the source.
# How the values were obtained:
# MDA 231 cells [1] = test: Assay for invasion inhibitors (Matrigel, recovery of non-invading cells, MTT); type: cell-based, human; details: for IC50: 2.5 h, read-out: IC50 invasion inhibition
# Procedure: Matrigel (Collaborative Biomedical Products, Bedford, Mass.) was diluted 1:1 in ice-cold DMEM/F12 and 50 μl was pipetted into wells of ice-cold 96-well cell culture plates (Falcon) using ice-cold pipette tips, avoiding the sides of each well. The matrix was then allowed to gel and then dry overnight in a dry 37° C. incubator followed by rehydration with 100 μl of growth medium 1 h prior to cell plating. This treatment produces a matrix that is less prone to breakage. On top of the Matrigel, was added 100 μl medium warmed to 37° C., with or without 1 μl of sponge extract dissolved in DMSO, followed by 100 μl medium containing 60,000 MDA 231 cells. Addition of 1 μl of DMSO served as a negative control. 50 μM […] LY294002, a phosphatidylinositol 3-kinase inhibitor known to inhibit invasion, served as a positive control. The cells were then incubated for 2.5 h to allow invasion to take place.
# Most of the cell culture, medium was removed without disturbing the cells. This may be accomplished using a hand-held pipettor, but more consistent results are achieved using the aspiration function of a Bio-Tek Elx405 96-well plate washer with the aspiration needle positioned about 2 mm above the surface of the Matrigel. […] The cells were then suspended by pipetting up and down three times using the 100 μl setting of a hand-held pipettor, and 100 μl was withdrawn and transferred to fresh plates without Matrigel containing 100 μl medium supplemented with 30% fetal calf serum to inactivate the trypsin. The cells were then incubated overnight to allow attachment of cells to the plastic surface. Live cells were measured using the MTT assay: the cell culture medium was replaced with 100 μl fresh medium and 25 μl of a 5 mg/ml solution of 3(4,5-dimethylthiazol-2-yl)-2,5-diphenyltetrazolium bromide in phosphate-buffered saline. After 2 hr at 37° C., the solution was removed and 100 μl of 20% sodium dodecyl sulfate dissolved in dimethylformamide: water (1:1) was added to lyse the cells. After overnight incubation at 37° C., absorbance was measured at 570 nm.
# axonal growth cones = test: Neuronal migration in insect embryo model; type: in vivo; details: 5 μM
# Procedure: Synthetic dihydromotuporamine (DiH-MPC, 5 μM) affected neuronal migration in a well-characterized insect embryo model. DiH-MPC slowed stereotypical migration of axonal growth cones whose ultimate synaptic targets are in the central nervous system (CNS). […] Therefore, the motuporamines have application in situations where reduced axonal sprouting would be of benefit after CNS wounding. This is of particular interest in spinal cord lesions where wound-induced axonal sprouting and migration (i.e. plasticity) leads to the inappropriate intermingling of neuronal pathways, which is a major impediment to clinically efficacious CNS regeneration.
# MDA 231 cells [2] = test: Cytotoxicity: cell proliferation after 24 h incubation with compound; type: cell-based, human; details: for effects on cell proliferation: 24 h, proliferation followed up to 5 additional days
# Procedure: The cytotoxic effects of Motuporamine C were examined by incubating cells in the presence of different concentrations of the compound for 24 h. Motuporamine C was washed away and cell proliferation was measured for up to 5 additional days. […] Likewise, the compounds shown in FIGS. 1, 2, 4, 5, 6, and 8-13 have low cytotoxicity.
# MDA 231 cells [3] = test: Cell spreading and actin cytoskeleton on tissue culture plastic; type: cell-based, human
# Procedure: The cells were plated on rigid tissue culture plastic in the presence of serum, which contains spreading factors (Ham). Under these conditions, most MDA 231 cells spread on the plastic within 4 h in the absence of Motuporamine C. […] These ruffles, which appear black in phase contrast microscopy represent sites of dynamic actin-mediated membrane movement in both spreading and migrating cells. […] These rounded cells remained attached to the tissue culture plastic by small lamellae that had small, discontinuous ruffles.
# MDA 231 cells were also pre-spread for 20 hours on tissue culture plastic and then treated with Motuporamine C (5 μM) for 4 hours.
# MDA 231 cells [4] = test: Cell migration: closure of gap in confluent monolayer; type: cell-based, human; details: 5 μM, 24 hours
# Procedure: The effects of Motuporamine C on cell spreading and actin ruffling indicates invasion inhibition by decreasing cell migration. A sterile toothpick was drawn across a confluent monolayer of MDA 231 cells, leaving a cell-free gap of about 100 μm. Closure of the gap by cell migration was monitored by microscopy. In the absence of Motuporamine C, cells migrated into the gap and essentially closed it within 24 hours. These cells had broad lamellar ruffles along their leading edges throughout which were condensations of actin. […] These cells had only small and discontinuous ruffles along their leading edges and contained only small discrete patches of actin, looking similar to the “button-like” condensations observed in pre-spread cells.
# HUVEC [5] = test: Endothelial sprouting assay; type: cell-based, human; details: VEGF 15 ng/ml
# Procedure: Endothelial sprouting was assessed by a modification of Nehls, V. and Drenckham, D. (1995) Microvasc. Res, 50:311-322). Microcarrier beads coated with denatured collagen (Cytodex 3, Sigma) were seeded with HUVEC. When the cells reached confluence an the beads, equal numbers of HUVEC-coated beads were embedded in fibrin gels in 96-well plates. For preparation of fibrin gels, bovine fibrinogen was dissolved in MCDB medium at a concentration of 2.5 mg/ml. Aprotinin was added at a concentration of 0.05 mg/ml and the solution was filtered through a 0.22 μm filter. The fibrinogen solution was supplemented with 15 ng/ml vascular endothelial growth factor (VEGF) with or without Motuporamine C. As a control, fibrinogen solution without VEGF or Motuporamine C was used. […] After 3 days of incubation with daily changes of the medium, the number of capillary-like tubes formed per microcarrier bead (sprouts/bead) was counted by microscopy. Only sprouts greater than 150 μm in length and composed of at least 3 endothelial cells were counted.
# In the endothelial sprouting assay, human umbilical vein endothelial cells (HUVEC) are seeded onto collagen-coated beads. Exposure to vascular endothelial growth factor stimulates the formation of capillary-like tubes called sprouts, whose number and length may be measured over time by microscopy.
# [6] = system: chick chorioallantoic membrane; test: Chick chorioallantoic membrane assay (CAM) for angiogenesis; type: in vivo, chicken; details: VEGF 30 ng/ml
# Procedure: Fertilized white Leghorn chicken eggs were incubated at 37° C. under conditions of constant humidity. On embryonic day 6, the developing chorioallantoic membrane (CAM) was separated form the shell by opening a small circular window at the broad end of the egg above the air sac. After removal of the inner membrane, the opening was sealed with Parafilm and the eggs were incubated for 2 more days. Motuporamine C was prepared in PBS supplemented with 30 ng/ml VEGF. On day 8, 20 μl was loaded onto 2 mm^3 gelatin sponges (Gelfoam, Pharmacia Upjohn) that were placed on the surface of the developing CAM. Sponges containing vehicle alone (20 μl PBS) were used as negative controls whereas sponges containing 20 μl of 30 ng/ml VEGF in PBS were used as positive controls, Eggs were resealed and returned to the incubator. On day 10, images of CAM were captured digitally using an Olympus SZX9 stereomicroscope equipped with a Sport RT digital imaging system (Diagnostics Instruments).
# HUVEC [7] = test: HUVEC survival and proliferation; type: cell-based, human
# Procedure: (§1) Motuporamine C had no effect on survival of confluent HUVEC at concentrations up to 10 μM and for up to 72 hours. […] Rather, Motuporamine C inhibited HUVEC migration as assessed using a modified Boyden chamber assay.
# HUVEC [8] = test: HUVEC migration, modified Boyden chamber assay; type: cell-based, human; details: 2.5 μM and 5 μM, VEGF 15 ng/ml
# Procedure: as §1
# [9] = system: Lewis Lung and SCCVII tumours; test: Tumour growth in vivo; details: i.p. daily, 10-15 mg/kg/day, mice
# [10] = system: primary Lewis lung tumour; test: Development of tumour metastases in vivo; details: i.p. 15 mg/kg/day, C57 mice, primary tumour irradiated
# Procedure: Primary tumours were grown to a specific size and then irradiated permitting the animals to survive long enough for lung metastases to be quantified.
structure (smiles),measurement,setting,value
NCCCNCCCn1c2ccccc2c2ccccc21 [carbazole analog],activity in the invasion inhibition assay (in words),MDA 231 cells [1]; MDA 231 cells on Matrigel,potent activity
same,IC50,MDA 231 cells [1]; MDA 231 cells on Matrigel,3 µM
"NCCCNCCCN1CCCCCCCCCCCCCC1 [DiH-MPC, Dihydromotuporamine C]",migration of axonal growth cones,axonal growth cones,slowed
same,steering or pathfinding of growth cones,axonal growth cones,no steering or pathfinding deficits
NCCCNCCCN1CCCCCCCCCCCC1 [Motuporamine A],IC50,MDA 231 cells [1]; MDA 231 cells on Matrigel,3 µM
NCCCNCCCN1CCCC/C=C\CCCCCCCC1 [Motuporamine C],detachment of cells from the matrix,MDA 231 cells [1]; 5 μM,did not cause the cells to detach
same,activity in the invasion inhibition assay (in words),MDA 231 cells [1]; MDA 231 cells on Matrigel,strong activity; also recorded: slightly more active
same,concentration that completely inhibited invasion,MDA 231 cells [1]; MDA 231 cells on Matrigel,5 µM
same,IC50,MDA 231 cells [1]; MDA 231 cells on Matrigel,1 µM
same,effects on cell proliferation,MDA 231 cells [2]; 1.6 μM,no detectable effects
same,effects on cell proliferation,MDA 231 cells [2]; 4 and 8 μM,mild inhibition
same,cytotoxicity (in words),"MDA 231 cells [2]; proliferating MDA 231 cells, low micromolar concentrations",little or no toxicity
same,cell spreading,"MDA 231 cells [3]; plated on plastic with serum, 4 h, increasing doses up to 5 μM",decreased cell spreading
same,rounding of pre-spread cells,"MDA 231 cells [3]; pre-spread 20 hours, 5 μM for 4 hours",did not round-up
same,actin cytoskeleton (rhodamine-phalloidin staining),"MDA 231 cells [3]; pre-spread cells, 5 μM for 4 hours",subtle changes
same,rounding of pre-spread cells,MDA 231 cells [3]; treatment up to 48 hours,did not cause significant cell rounding
same,cell migration (gap closure),MDA 231 cells [4],slows cell migration
same,sprout formation in response to VEGF,HUVEC [5]; 2.5 μM,clear inhibition
same,sprout formation in response to VEGF,HUVEC [5]; 5 μM,complete inhibition
same,angiogenesis in CAM assay,[6],inhibits angiogenesis
same,proliferation rate of HUVEC,HUVEC [7],does not decrease
same,survival of confluent HUVEC,"HUVEC [7]; up to 10 μM, up to 72 hours",no effect
same,migration of HUVEC towards VEGF,HUVEC [8],inhibited the migration
same,reduction in tumour growth rate compared to controls,[9],25-50%
same,tumour growth compared to vehicle controls,[9],significant decrease
same,incidence of lung metastases,[10],decreased incidence
"C=C1[C@@H](C)[C@H]2[C@H](Cc3ccccc3)NC(=O)[C@]23[C@H](OC(C)=O)/C=C/[C@@](C)(O)C(=O)[C@@H](C)C/C=C/[C@H]3[C@@H]1O [cytochalasin D, reference compound]",actin cytoskeleton,MDA 231 cells [3]; 1 μg/ml,complete disassembly of the actin filaments
same,rounding of pre-spread cells,MDA 231 cells [3]; 1 μg/ml,round up completely
